Source: article PMC5643462, “Encrypted Antimicrobial Peptides from Plant Proteins” (Scientific Reports, 2017)
Converted amounts (≈) assume the structure as drawn.

Key:
Fusarium oxysporum = assay: microbe, parasite or virus in culture; conditions: Fusarium oxysporum, 48 h, pH 7, read-out: Minimum inhibitory concentration, Fusarium oxysporum
Method: (§1) The susceptibility test of microorganisms was performed to evaluate the inhibitory activity of the IAPs. Protocols M7-A10[50], M27-A3[51] and M38-A2[52] from Clinical & Laboratory Standards Institute (CLSI) were used for bacteria, yeasts and filamentous fungi tests, respectively. Briefly, different concentration of IAPs (256-0.5 µM) were tested against 16 microorganisms, in a final volume of 100 µL. Media conditions, final cell concentration and incubation conditions are presented in Supplementary Material 07, Table S5. Three biological repetitions, with 2 technical replicates each, were performed for each test, on polystyrene flat-bottom 96 wells microplates. The minimum inhibitory concentration (MIC) was defined as the concentration that no cells/hyphae were detected when visualized by optical microscopy.
(§2) Supplementary Material 07, Table S5
(§3) Table S5. Microorganisms and growth conditions.

Candida albicans = assay: microbe, parasite or virus in culture; conditions: Candida albicans, ATCC90028, 48 h, pH 7, read-out: Minimum inhibitory concentration, Candida albicans
Method: as §1, §2, §3

Cryptococcus neoformans = assay: microbe, parasite or virus in culture; conditions: Cryptococcus neoformans, ATCC28957, 72 h, pH 7, read-out: Minimum inhibitory concentration, Cryptococcus neoformans
Method: as §1, §2, §3

Trichoderma asperellum = assay: microbe, parasite or virus in culture; conditions: Trichoderma asperellum, 48 h, pH 7, read-out: Minimum inhibitory concentration, Trichoderma asperellum
Method: as §1, §2, §3

Ramularia areola = assay: microbe, parasite or virus in culture; conditions: Ramulariopsis gossypii, 120 h, pH 7, read-out: Minimum inhibitory concentration, Ramularia areola
Method: as §1, §2, §3

Bacillus subtilis [1] = assay: Microbicidal activity (minimal killing concentration), plating on agar; format: cell-based, Bacillus subtilis ATCC 23857; conditions: 10 µL of MIC and raising concentrations up to 256 µM plated on Mueller-Hinton agar; 37 °C, 24 h; no growth; mean ± SD, 3 biological replicates
Method: (§4) The microbicidal activity of the IAPS was also evaluated. […] YPD agar and Mueller-Hinton agar were used for fungi/yeasts and bacteria, respectively. Meanwhile, susceptibility microplates were incubated again to evaluate if there would be any growing after a longer period. For both approaches, the minimal killing concentration (MKC) was defined as the concentration that no growth was observed after incubation. Three biological replicates were performed for each test.
as §2, §3
(§5) Microorganisms Incubation Incubation Starting cell Growth Medium

Erwinia carotovora [2] = assay: as above; format: cell-based; conditions: 10 µL of MIC and raising concentrations up to 256 µM plated on Mueller-Hinton agar; 28 °C, 24 h; no growth; mean ± SD, 3 biological replicates
Method: as §4, §2, §3, §5
(§6) Temperature (°C) Time (h) concentration
(§7) Erwinia carotovora 28 24 5.0 x 10 5 Mueller -Hinton
(§8) Xanthomonas campestris pv. citri 28 24 5.0 x 10 5 Mueller -Hinton
(§9) Pseudomonas syringae pv. tabaci 28 24 5.0 x 10 5 Mueller -Hinton

[3] = system: Pseudomonas syringae pv. tabaci; assay: as above; format: cell-based; conditions: 10 µL of MIC and raising concentrations up to 256 µM plated on Mueller-Hinton agar; 28 °C, 24 h; no growth; mean ± SD, 3 biological replicates
Method: as §4, §2, §3, §5, §6, §7, §8, §9

Escherichia coli [4] = assay: as above; format: cell-based, Escherichia coli ATCC 25922; conditions: 10 µL of MIC and raising concentrations up to 256 µM plated on Mueller-Hinton agar; 37 °C, 24 h; no growth; mean ± SD, 3 biological replicates
Method: as §4, §2, §3, §5

Erwinia carotovora [5] = assay: microbe, parasite or virus in culture; conditions: Mueller-Hinton; 28 °C, 24 h; start 5.0 x 10^5 cells; 256-0.5 µM; mean ± SD of 3 biological repetitions (SD 0 not displayed); N/A = no antimicrobial activity observed
Method: as §1, §2, §3

Xanthomonas campestris [6] = assay: microbe, parasite or virus in culture; conditions: pv. citri; Mueller-Hinton; 28 °C, 24 h; start 5.0 x 10^5 cells; 256-0.5 µM; mean ± SD of 3 biological repetitions (SD 0 not displayed); N/A = no antimicrobial activity observed
Method: as §1, §2, §3

Escherichia coli [7] = assay: microbe, parasite or virus in culture; conditions: ATCC 25922; Mueller-Hinton; 37 °C, 24 h; start 5.0 x 10^5 cells; 256-0.5 µM; mean ± SD of 3 biological repetitions (SD 0 not displayed); N/A = no antimicrobial activity observed
Method: as §1, §2, §3

[8] = system: Pseudomonas syringae pv. tabaci; assay: microbe, parasite or virus in culture; conditions: Mueller-Hinton; 28 °C, 24 h; start 5.0 x 10^5 cells; 256-0.5 µM; mean ± SD of 3 biological repetitions (SD 0 not displayed); N/A = no antimicrobial activity observed
Method: as §1, §2, §3

Staphylococcus aureus [9] = assay: microbe, parasite or virus in culture; conditions: ATCC 25923; Mueller-Hinton; 37 °C, 24 h; start 5.0 x 10^5 cells; 256-0.5 µM; mean ± SD of 3 biological repetitions (SD 0 not displayed); N/A = no antimicrobial activity observed
Method: as §1, §2, §3

Bacillus subtilis [10] = assay: microbe, parasite or virus in culture; conditions: ATCC 23857; Mueller-Hinton; 37 °C, 24 h; start 5.0 x 10^5 cells; 256-0.5 µM; mean ± SD of 3 biological repetitions (SD 0 not displayed); N/A = no antimicrobial activity observed
Method: as §1, §2, §3

Xanthomonas campestris [11] = assay: Microbicidal activity (minimal killing concentration), plating on agar; format: cell-based, Xanthomonas campestris pv. citri; conditions: 10 µL of MIC and raising concentrations up to 256 µM plated on Mueller-Hinton agar; 28 °C, 24 h; no growth; mean ± SD, 3 biological replicates
Method: as §4, §2, §3, §5, §6, §7, §8, §9

Staphylococcus aureus [12] = assay: as above; format: cell-based, Staphylococcus aureus ATCC 25923; conditions: 10 µL of MIC and raising concentrations up to 256 µM plated on Mueller-Hinton agar; 37 °C, 24 h; no growth; mean ± SD, 3 biological replicates
Method: as §4, §2, §3, §5, §6, §7, §8, §9

| MIC (Fusarium oxysporum) [µM] | MIC (Candida albicans) [µM] | MIC (Cryptococcus neoformans) [µM] | MIC (Trichoderma asperellum) [µM] | MIC (Ramularia areola) [µM] | Compound | Minimum microbicidal concentration, Bacillus subtilis (Bacillus subtilis [1]) [µM] | Minimum microbicidal concentration, Erwinia carotovora (Erwinia carotovora [2]) [µM] | Minimum microbicidal concentration, Pseudomonas syringae pv. tabaci [3] [µM] | Minimum microbicidal concentration, Escherichia coli (Escherichia coli [4]) [µM] | Minimum inhibitory concentration, Erwinia carotovora (Erwinia carotovora [5]) [µM] | Minimum inhibitory concentration, Xanthomonas campestris (Xanthomonas campestris [6]) [µM] | Minimum inhibitory concentration, Escherichia coli (Escherichia coli [7]) [µM] | Minimum inhibitory concentration, Pseudomonas syringae pv. tabaci [8] [µM] | Minimum inhibitory concentration, Staphylococcus aureus (Staphylococcus aureus [9]) [µM] | Minimum inhibitory concentration, Bacillus subtilis (Bacillus subtilis [10]) [µM] | Minimum microbicidal concentration, Xanthomonas campestris (Xanthomonas campestris [11]) [µM] | Minimum microbicidal concentration, Staphylococcus aureus (Staphylococcus aureus [12]) [µM] |
| --- | --- | --- | --- | --- | --- | --- | --- | --- | --- | --- | --- | --- | --- | --- | --- | --- | --- |
| 0.54 (≈ 0.499 µg/mL) | 0.27 (≈ 0.25 µg/mL) | 0.13 (≈ 0.12 µg/mL) | 2.16 (≈ 2 µg/mL) | 0.54 (≈ 0.499 µg/mL) | C[C@@H]1[C@H](O)[C@@H](C)/C=C/C=C/C=C/C=C/C=C/C=C/C=C/[C@H](O[C@@H]2O[C@H](C)[C@@H](O)[C@H](N)[C@@H]2O)C[C@@H]2O[C@](O)(C[C@@H](O)C[C@@H](O)[C@H](O)CC[C@@H](O)C[C@@H](O)CC(=O)O[C@H]1C)C[C@H](O)[C@H]2C(=O)O [Amphotericin B] |  |  |  |  |  |  |  |  |  |  |  |  |
|  |  |  |  |  | CC1(C)S[C@@H]2[C@H](NC(=O)[C@H](N)c3ccccc3)C(=O)N2[C@H]1C(=O)O [Ampicilin] | 0.08 ± 0.0 | 2.70 ± 0.0 | 10.77 ± 0.0 | 10.77 ± 0.0 | 1.35 (≈ 0.472 µg/mL) | 1.35 (≈ 0.472 µg/mL) | 10.77 (≈ 3.76 µg/mL) | 2.69 (≈ 0.94 µg/mL) | 5.38 (≈ 1.88 µg/mL) | 0.08 (≈ 0.028 µg/mL) | 5.38 ± 0.0 | 10.77 ± 0.0 |
